Results taken from patent publication US7659310B2, “Methods of enhancing solubility of agents” (Formatech, Inc., priority 2004, dated 2010).
Converted amounts (≈) assume the structure as drawn. “And” between values parts separate entries of the source, which are not always exact repeats. Equal entries are not always repeated. Where two headings read alike, the source gives them in different places.

Tests used:
[1] = Solubilization of compounds in fatty acid / fatty acid salt (soluble, formulation clear); conditions: for solubility: aqueous with cosolvent or surfactant or cyclodextrin
Method: (§1) Ethanolamine (8 μL) was subsequently added and mixed using a VORTEX®. After mixing, the sample was dispersed in 466 μL of water for injection.
(§2) Ethanolamine (62 μL) was subsequently added and mixed using a VORTEX®. After mixing, the sample was dispersed in 784 μL of water for injection.
(§3) Digoxin (1 mg) was added to 28 μL of oleic acid and mixed using VORTEX. Ethanolamine (6 μL) was subsequently added and mixed using a VORTEX®. After mixing, the sample was dispersed in 966 μL of water for injection.
(§4) Digoxin (1 mg) was added to 1 mL of 0.25 M sodium oleate and mixed using a VORTEX®.
(§5) N-acetylsalicylic acid (18 mg) was added to 31 μL of oleic acid and mixed using a VORTEX®. Ethanolamine (6 μL) was subsequently added and mixed using a VORTEX®. After mixing, the sample was dispersed in 963 μL of water for injection.
(§6) N-acetylsalicylic acid (25 mg) was added to 1 mL of 0.25 M sodium oleate and mixed using a VORTEX®.
(§7) Paclitaxel (18 mg) was added to 31 μL of oleic acid and mixed using a VORTEX®. Ethanolamine (6 μL) was subsequently added and mixed using a VORTEX®. After mixing, the sample was dispersed in 963 μL of water for injection.
(§8) Paclitaxel (5.6 mg) was added to 1 mL of 0.1 M sodium oleate and mixed using a VORTEX®.
(§9) Paclitaxel (2 mg) was added to 1 mL of 1 M sodium caprylate and mixed by a VORTEX®.
Paclitaxel (7.2 mg) was added to 1 mL of 1 M sodium linoleate and mixed using a VORTEX®.
For example, β-Lapachone was dissolved (25 mg/mL) in ethanol:oleic acid (EtOH:OA) at volume to volume ratios of 70%:30%, 75%:25%, or 80%:20% EtOH:OA.
In another example, β-Lapachone was dissolved (50 mg/mL) in dimethylsulfoxide:oleic acid (DMSO:OA) at volume to volume ratios of 60%:40, 70%:30% DMSO:OA or in DMSO:EtOH:OA (30%:30%:40% v/v).
For example, Propofol (1% v/v or 10 mg/mL) was dissolved in 100 mM sodium oleate in 5% (w/v) dextrose in water for injection. The resulting solution containing 1% Propofol was lyophilized.
For example, Paclitaxel (5 mg/mL) was dissolved in 100 mM sodium oleate in 100% ethanol. Ethanol was completely evaporated using rotary evaporation at 20° C. The Paclitaxel-sodium oleate was reconstituted with WFI or 2.5% glycerol to provide 5 mg/mL, 10 mg/mL, or 20 mg/mL concentration of Paclitaxel.

[2] = Stability of the solubilized compound (remains soluble) by reverse phase HPLC
Method: as §1, §2, §3, §4, §5, §6, §7, §8, §9
Paclitaxel (7.2 mg) was added to 1 mL of 1 M sodium linoleate and mixed using a VORTEX®. […]
For example, Propofol (1% v/v or 10 mg/mL) was dissolved in 100 mM sodium oleate in 5% (w/v) dextrose in water for injection. The resulting solution containing 1% Propofol was lyophilized. […]

C[C@H]1O[C@@H](O[C@H]2[C@@H](O)C[C@H](O[C@H]3[C@@H](O)C[C@H](O[C@H]4CC[C@@]5(C)[C@H](CC[C@@H]6[C@@H]5C[C@@H](O)[C@]5(C)[C@@H](C7=CC(=O)OC7)CC[C@]65O)C4)O[C@@H]3C)O[C@@H]2C)C[C@H](O)[C@@H]1O [Digoxin]
solubility ([1]; concentration at which soluble and formulation clear, 0.25 M sodium oleate): 1000 µg/mL | solubility ([1]; concentration at which soluble and formulation clear, oleic acid, then ethanolamine, dispersed in water for injection): 1000 µg/mL | time remained soluble, formulation stable upon dilution ([2]; 0.25 M sodium oleate, dilution 1:10 in saline, RP-HPLC): up to 24 hours | time remained soluble, formulation stable upon dilution ([2]; oleic acid/ethanolamine formulation, dilution 1:4 in saline, RP-HPLC): up to 24 hours

CC(=O)Oc1ccccc1C(=O)O [N-acetylsalicylic acid]
concentration at which soluble and formulation clear [1]: 25 mg/mL | solubility ([1]; concentration at which soluble and formulation clear): 18000 µg/mL (≈ 99.9 mM) | time remained soluble, formulation stable upon dilution [2]: up to 24 hours

CC(=O)O[C@H]1C(=O)[C@@]2(C)[C@H]([C@H](OC(=O)c3ccccc3)[C@]3(O)C[C@H](OC(=O)[C@H](O)[C@@H](NC(=O)c4ccccc4)c4ccccc4)C(C)=C1C3(C)C)[C@]1(OC(C)=O)CO[C@@H]1C[C@@H]2O [Paclitaxel]
fold greater than the solubility in water [1]: 630-850 fold | concentration dissolved ([1]; 100 mM sodium oleate in 100% ethanol): 5 mg/mL | solubility ([1]; solubilization): 6300 to 8500 µg/mL (≈ 7.38 to 9.95 mM) | time remained soluble, formulation stable upon dilution [2]: up to 24 hours

CC(C)c1cccc(C(C)C)c1O [Propofol]
concentration dissolved ([1]; 100 mM sodium oleate in 5% (w/v) dextrose in water for injection (1% v/v)): 10 mg/mL | stability of reconstituted lyophilized compound ([2]; 1% in 100 mM sodium oleate/D5W, lyophilized and reconstituted, RP-HPLC): stable without degradation or impurities

CC1(C)CCC2=C(O1)c1ccccc1C(=O)C2=O [β-Lapachone]
final concentration of the dispersed compound ([1]; OA-DMSO/EtOH mixture dispersed in equimolar sodium hydroxide solution): 1.5 mg/mL and 2.0 mg/mL and 2.5 mg/mL | concentration dissolved ([1]; in DMSO:OA 60%:40, 70%:30% or DMSO:EtOH:OA 30%:30%:40% v/v): 50 mg/mL | concentration dissolved ([1]; in ethanol:oleic acid 70%:30%, 75%:25% or 80%:20% v/v): 25 mg/mL
